Here are results for one molecule from paper PMC10174618, “Monoterpenoid aryl hydrocarbon receptor allosteric antagonists protect against ultraviolet skin damage in female mice” (Nature Communications, 2023).

What all share (test): biochemical
What all share (design): KINOMEscan scanMAX active site-directed competition binding assay, percent of control, 468 kinases
Details in all cases: competition binding, percent of control

Experiment [1] addresses SGK2 (Homo sapiens, UniProt Q9HBY8). The method, boiled down: (§1)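 KINOMEscan active site-directed competition binding assay against 468 human kinases with 100 μM S-carvone. Binding expressed as % of control, with 35% of control as the inhibition threshold.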
Experiment [2] concerns the target TRPM6 (Homo sapiens, UniProt Q9BX84). In outline: as §1
Experiment [3] addresses T1, LOK (Homo sapiens, UniProt O94804).
T1 construct: gene STK10
In outline: as §1

For experiment [4], the target named is PIK3CA(H1047Y) (Homo sapiens, UniProt P42336, H1047Y). The method, boiled down: as §1
PIK3CA(H1047Y), sequence (P42336 whole entry H1047Y): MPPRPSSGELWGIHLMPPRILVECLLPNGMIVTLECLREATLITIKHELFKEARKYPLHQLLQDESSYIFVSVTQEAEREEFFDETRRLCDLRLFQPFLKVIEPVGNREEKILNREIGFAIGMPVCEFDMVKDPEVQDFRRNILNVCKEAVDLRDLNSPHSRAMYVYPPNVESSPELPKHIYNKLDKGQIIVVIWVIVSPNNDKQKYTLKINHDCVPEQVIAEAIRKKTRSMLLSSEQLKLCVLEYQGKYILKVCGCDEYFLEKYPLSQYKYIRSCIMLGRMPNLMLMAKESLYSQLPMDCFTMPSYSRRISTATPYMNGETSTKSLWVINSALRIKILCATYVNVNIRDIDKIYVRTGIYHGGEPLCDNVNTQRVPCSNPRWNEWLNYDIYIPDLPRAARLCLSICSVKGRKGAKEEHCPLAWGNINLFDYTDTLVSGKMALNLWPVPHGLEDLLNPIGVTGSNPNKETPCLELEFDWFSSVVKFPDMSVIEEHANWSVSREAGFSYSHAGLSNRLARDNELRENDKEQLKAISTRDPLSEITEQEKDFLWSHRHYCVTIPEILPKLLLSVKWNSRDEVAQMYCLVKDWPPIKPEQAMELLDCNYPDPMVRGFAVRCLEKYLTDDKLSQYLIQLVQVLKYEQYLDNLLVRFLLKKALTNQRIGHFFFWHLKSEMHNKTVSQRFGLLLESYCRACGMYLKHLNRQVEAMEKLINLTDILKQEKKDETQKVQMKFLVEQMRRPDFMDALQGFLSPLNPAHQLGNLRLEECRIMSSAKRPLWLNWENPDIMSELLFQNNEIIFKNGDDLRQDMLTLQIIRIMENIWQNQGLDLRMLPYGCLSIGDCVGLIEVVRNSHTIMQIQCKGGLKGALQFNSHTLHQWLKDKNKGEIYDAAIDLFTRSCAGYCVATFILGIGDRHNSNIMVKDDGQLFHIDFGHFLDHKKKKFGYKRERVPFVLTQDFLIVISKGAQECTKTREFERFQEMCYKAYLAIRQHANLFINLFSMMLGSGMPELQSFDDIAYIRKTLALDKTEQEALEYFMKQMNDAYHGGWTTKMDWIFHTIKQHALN
Experiment [5] addresses MAP3K4 (Homo sapiens, UniProt Q9Y6R4). In outline: as §1
Experiment [6] concerns the target VRK2 (Homo sapiens, UniProt Q86Y07). The method, boiled down: as §1
Experiment [7] has as its target FLT3-autoinhibited (Homo sapiens, UniProt P36888). In outline:
as §1

The target of experiment [8] is LCK (Homo sapiens, UniProt P06239). In outline:
as §1

Experiment [9] has as its target SRPK3 (Homo sapiens, UniProt Q9UPE1). In outline:
as §1

In experiment [10] the target is T2, AMPK-alpha2 (Homo sapiens, UniProt P54646).
T2 construct: gene PRKAA2
The method, boiled down: as §1

In experiment [11] the target is AURKC (Homo sapiens, UniProt Q9UQB9). The method, boiled down:
as §1

For experiment [12], the target named is T3, CAMK1B (Homo sapiens, UniProt Q6P2M8).
T3 construct: gene PNCK
T3 sequence (Q6P2M8 whole entry): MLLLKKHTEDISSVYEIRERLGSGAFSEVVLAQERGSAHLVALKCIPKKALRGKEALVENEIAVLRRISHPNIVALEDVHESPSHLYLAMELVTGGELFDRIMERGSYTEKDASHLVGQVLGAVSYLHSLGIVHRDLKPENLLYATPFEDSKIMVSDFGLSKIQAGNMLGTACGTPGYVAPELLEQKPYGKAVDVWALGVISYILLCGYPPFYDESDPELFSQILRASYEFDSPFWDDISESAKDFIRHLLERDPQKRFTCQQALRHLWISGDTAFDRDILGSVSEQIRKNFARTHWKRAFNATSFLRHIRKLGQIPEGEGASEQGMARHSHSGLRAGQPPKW
The method, boiled down: as §1

For experiment [13], the target named is PIKFYVE (Homo sapiens, UniProt Q9Y2I7). In outline: as §1
Experiment [14] concerns the target EPHB6 (Homo sapiens, UniProt O15197). The method, boiled down: as §1
Experiment [15] deals with SLK (Homo sapiens, UniProt Q9H2G2). In outline:
as §1

Experiment [16] deals with LYN (Homo sapiens, UniProt P07948). The method, boiled down: as §1
LYN, sequence (P07948 whole entry): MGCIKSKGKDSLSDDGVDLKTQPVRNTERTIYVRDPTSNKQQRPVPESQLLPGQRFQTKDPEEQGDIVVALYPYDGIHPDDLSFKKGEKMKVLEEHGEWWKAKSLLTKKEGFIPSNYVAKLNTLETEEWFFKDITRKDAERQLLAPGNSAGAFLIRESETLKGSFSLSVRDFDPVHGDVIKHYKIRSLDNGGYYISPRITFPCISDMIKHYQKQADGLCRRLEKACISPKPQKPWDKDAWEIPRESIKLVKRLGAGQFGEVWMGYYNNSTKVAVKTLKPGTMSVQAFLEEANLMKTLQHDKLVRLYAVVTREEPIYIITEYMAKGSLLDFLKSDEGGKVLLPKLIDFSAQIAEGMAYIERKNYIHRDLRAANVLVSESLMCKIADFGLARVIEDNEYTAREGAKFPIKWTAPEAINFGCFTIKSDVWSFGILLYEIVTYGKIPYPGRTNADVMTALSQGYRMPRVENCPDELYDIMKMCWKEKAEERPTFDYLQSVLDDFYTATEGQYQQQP
Experiment [17] concerns the target EGFR(T790M) (Homo sapiens, UniProt P00533, T790M). In outline: as §1
In experiment [18] the target is SNRK (Homo sapiens, UniProt Q9NRH2). In outline: as §1
SNRK, sequence (Q9NRH2 whole entry): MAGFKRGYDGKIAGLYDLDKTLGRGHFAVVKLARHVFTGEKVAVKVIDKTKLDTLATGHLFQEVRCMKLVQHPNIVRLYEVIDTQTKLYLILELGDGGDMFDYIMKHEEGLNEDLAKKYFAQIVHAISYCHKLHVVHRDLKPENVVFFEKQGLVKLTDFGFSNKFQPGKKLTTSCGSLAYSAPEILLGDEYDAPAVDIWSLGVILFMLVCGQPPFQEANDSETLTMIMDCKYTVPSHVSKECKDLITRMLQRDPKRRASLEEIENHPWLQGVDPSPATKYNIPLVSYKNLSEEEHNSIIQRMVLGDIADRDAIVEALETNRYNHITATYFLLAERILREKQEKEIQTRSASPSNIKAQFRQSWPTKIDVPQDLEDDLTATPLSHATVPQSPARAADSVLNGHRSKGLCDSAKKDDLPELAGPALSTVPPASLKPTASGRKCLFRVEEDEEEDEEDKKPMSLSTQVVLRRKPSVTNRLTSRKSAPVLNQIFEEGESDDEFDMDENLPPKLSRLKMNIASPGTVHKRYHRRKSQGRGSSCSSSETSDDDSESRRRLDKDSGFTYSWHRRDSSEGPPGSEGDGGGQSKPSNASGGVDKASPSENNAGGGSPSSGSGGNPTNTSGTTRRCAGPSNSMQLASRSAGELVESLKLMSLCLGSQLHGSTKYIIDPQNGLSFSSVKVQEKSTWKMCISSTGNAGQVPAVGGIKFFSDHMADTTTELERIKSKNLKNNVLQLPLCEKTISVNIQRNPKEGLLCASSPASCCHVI
Experiment [19] has as its target MAP4K5 (Homo sapiens, UniProt Q9Y4K4). The method, boiled down: as §1
In experiment [20] the target is T4, ABL1(T315I)-nonphosphorylated (Homo sapiens, UniProt P00519, T315I).
T4 construct: nonphosphorylated
The method, boiled down: as §1

The target of experiment [21] is BMPR1B (Homo sapiens, UniProt O00238). The method, boiled down: as §1
The target of experiment [22] is NEK11 (Homo sapiens, UniProt Q8NG66). In outline:
as §1

SGK2, sequence (Q9HBY8 whole entry): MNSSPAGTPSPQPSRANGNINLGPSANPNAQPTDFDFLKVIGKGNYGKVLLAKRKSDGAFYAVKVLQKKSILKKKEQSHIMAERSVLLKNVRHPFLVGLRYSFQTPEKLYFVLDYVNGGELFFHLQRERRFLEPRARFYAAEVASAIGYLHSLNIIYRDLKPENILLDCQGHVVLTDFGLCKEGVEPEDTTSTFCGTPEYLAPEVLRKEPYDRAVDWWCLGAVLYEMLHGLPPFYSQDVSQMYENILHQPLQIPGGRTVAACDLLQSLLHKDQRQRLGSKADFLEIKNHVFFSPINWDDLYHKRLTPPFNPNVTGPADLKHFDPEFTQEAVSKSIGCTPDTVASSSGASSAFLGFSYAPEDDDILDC
FLT3-autoinhibited, sequence (P36888 whole entry): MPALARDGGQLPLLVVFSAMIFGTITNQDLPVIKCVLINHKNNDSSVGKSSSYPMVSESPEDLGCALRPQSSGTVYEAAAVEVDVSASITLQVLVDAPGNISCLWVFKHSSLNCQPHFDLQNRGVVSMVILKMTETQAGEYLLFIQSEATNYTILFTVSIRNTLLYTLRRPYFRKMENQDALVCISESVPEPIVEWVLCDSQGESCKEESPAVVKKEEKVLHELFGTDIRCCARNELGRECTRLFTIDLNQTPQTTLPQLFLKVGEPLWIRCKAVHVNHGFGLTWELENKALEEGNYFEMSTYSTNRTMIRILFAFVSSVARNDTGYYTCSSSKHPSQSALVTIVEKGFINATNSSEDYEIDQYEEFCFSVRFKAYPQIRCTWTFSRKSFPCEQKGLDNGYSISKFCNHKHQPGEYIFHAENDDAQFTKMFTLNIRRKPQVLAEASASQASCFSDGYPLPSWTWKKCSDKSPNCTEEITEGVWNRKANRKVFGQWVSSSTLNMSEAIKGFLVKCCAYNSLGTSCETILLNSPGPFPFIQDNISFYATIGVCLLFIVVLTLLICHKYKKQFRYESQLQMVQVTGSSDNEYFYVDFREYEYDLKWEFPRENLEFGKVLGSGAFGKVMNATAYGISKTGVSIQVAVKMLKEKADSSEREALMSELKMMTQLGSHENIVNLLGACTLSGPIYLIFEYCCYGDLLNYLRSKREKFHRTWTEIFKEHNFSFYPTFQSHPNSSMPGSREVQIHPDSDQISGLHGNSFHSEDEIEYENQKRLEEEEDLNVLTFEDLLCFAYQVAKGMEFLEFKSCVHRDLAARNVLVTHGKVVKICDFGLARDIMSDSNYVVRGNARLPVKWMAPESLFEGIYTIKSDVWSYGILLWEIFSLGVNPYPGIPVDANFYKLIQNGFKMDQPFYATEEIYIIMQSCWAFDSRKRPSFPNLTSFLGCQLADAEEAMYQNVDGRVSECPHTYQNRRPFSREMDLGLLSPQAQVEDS
T1 sequence (O94804 whole entry): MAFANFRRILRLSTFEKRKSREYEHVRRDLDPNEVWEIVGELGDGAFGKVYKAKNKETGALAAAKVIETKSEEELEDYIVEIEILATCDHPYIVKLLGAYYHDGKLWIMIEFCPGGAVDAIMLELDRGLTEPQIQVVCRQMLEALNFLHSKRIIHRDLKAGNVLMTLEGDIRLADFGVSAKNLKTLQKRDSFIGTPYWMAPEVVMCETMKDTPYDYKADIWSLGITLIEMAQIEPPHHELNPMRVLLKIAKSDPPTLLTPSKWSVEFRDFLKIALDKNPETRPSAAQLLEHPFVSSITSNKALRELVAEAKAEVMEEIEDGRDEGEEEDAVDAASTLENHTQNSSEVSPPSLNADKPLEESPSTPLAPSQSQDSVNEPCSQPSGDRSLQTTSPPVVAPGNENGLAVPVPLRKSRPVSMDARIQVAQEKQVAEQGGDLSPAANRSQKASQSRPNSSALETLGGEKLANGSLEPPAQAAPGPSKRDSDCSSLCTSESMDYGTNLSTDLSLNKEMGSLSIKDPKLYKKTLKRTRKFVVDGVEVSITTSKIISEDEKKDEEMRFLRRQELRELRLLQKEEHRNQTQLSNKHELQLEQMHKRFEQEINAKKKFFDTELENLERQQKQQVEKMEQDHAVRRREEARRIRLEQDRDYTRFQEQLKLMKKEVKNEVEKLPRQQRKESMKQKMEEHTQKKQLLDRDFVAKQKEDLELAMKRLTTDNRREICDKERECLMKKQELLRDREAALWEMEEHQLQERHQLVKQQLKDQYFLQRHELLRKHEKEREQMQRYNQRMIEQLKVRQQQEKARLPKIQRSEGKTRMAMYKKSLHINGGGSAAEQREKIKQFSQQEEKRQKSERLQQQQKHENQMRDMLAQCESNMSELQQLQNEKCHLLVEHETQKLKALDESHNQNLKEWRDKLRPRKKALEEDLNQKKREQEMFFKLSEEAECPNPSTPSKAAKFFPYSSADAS

On to `C=C(C)[C@H]1CC=C(C)C(=O)C1` [S-carvone], for which the remaining binding at 100 µM was 68% in experiment [1]; 87% in experiment [2]; 87% in experiment [3]; 92% in [4]; 79% in experiment [5]; 81% in experiment [6]. For the same molecule, the remaining binding at 100 µM in [7] was determined as 67%; in experiment [8], 71%; in experiment [9], 61%; in [10] it was 88%; in experiment [11], 100%; in [12], 61%. For the same molecule, the remaining binding at 100 µM in [13] was determined as 100%; in experiment [14], 51%; in [15] it was 78%; in experiment [16], 72%; in experiment [17], 64%; in experiment [18] it was 75%. The remaining binding at 100 µM in experiment [19] turned out to be 85%; in experiment [20] it was 78%; in experiment [21] it was 74%; in experiment [22] it was 52%.
